# Data taken from US6737383B1, “Herbicidal oxadiazolidines” (priority 1999, dated 2004).
# Tests used:
# bedstraw = assay: Test B pre/postemergence bedstraw; assay type: in vivo, Galium aparine
# Procedure, shortened: (§1)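 Test chemicals in a non-phytotoxic solvent mixture with surfactant were sprayed preemergence onto planted seeds and postemergence onto plants 2 to 18 cm tall (1- to 4-leaf stage). After twelve to sixteen days in a greenhouse, injury was visually rated against untreated controls from 0 (no effect) to 10 (complete control).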
# blackgrass = assay: Test B pre/postemergence blackgrass; assay type: in vivo, Alopecurus myosuroides
# Procedure, shortened: as §1
# surinam grass = assay: Test B pre/postemergence surinam grass; assay type: in vivo, Brachiaria decumbens
# Procedure, shortened: as §1
# corn = assay: Test B pre/postemergence corn; assay type: in vivo, Zea mays
# Procedure, shortened: as §1
# crabgrass = assay: Test B pre/postemergence crabgrass; assay type: in vivo, Digitaria sanguinalis
# Procedure, shortened: as §1
# pigweed = assay: Test B pre/postemergence pigweed; assay type: in vivo, Amaranthus retroflexus
# Procedure, shortened: as §1
# rape = assay: Test B pre/postemergence rape; assay type: in vivo, Brassica napus
# Procedure, shortened: as §1
# soybean = assay: Test B pre/postemergence soybean; assay type: in vivo, Glycine max
# Procedure, shortened: as §1
# sugar beet = assay: Test B pre/postemergence sugar beet; assay type: in vivo, Beta vulgaris
# Procedure, shortened: as §1
# velvetleaf = assay: Test B pre/postemergence velvetleaf; assay type: in vivo, Abutilon theophrasti
# Procedure, shortened: as §1
# wheat = assay: Test B pre/postemergence wheat; assay type: in vivo, Triticum aestivum
# Procedure, shortened: as §1
# wild oat = assay: Test B pre/postemergence wild oat; assay type: in vivo, Avena fatua
# Procedure, shortened: as §1
# purple nutsedge = assay: Test B pre/postemergence purple nutsedge; assay type: in vivo, Cyperus rotundus
# Procedure, shortened: as §1
# rice = assay: Test B flood test rice; assay type: in vivo, Oryza sativa
# Procedure, shortened: (§2)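 Each value is a visual injury score relative to controls, with 10 meaning complete control and 0 no effect. Evaluation took place twelve to sixteen days after the 2-leaf-stage plants were treated and kept in the greenhouse.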
# smallflower flatsedge = assay: Test B flood test smallflower flatsedge; assay type: in vivo, Cyperus difformis
# Procedure, shortened: as §2
# duck salad = assay: Test B flood test duck salad; assay type: in vivo, Heteranthera limosa
# Procedure, shortened: as §2
# [1] = Postemergence, Rate 62 g/ha, scale 0 to 10, 0 is no effect, 10 is complete control
# [2] = Postemergence, Rate 250 g/ha, scale 0 to 10, 0 no effect, 10 complete control
# [3] = Preemergence, Rate 62 g/ha, scale 0 to 10 (0 no effect, 10 complete control)
# [4] = Preemergence, Rate 125 g/ha, scale 0 to 10 (0 no effect, 10 complete control)
# [5] = Preemergence, Rate 250 g/ha, scale of 0 to 10 where 0 is no effect and 10 is complete control
# [6] = Preemergence, Rate 500 g/ha, scale 0 (no effect) to 10 (complete control)
# [7] = Rate 125 g/ha, Postemergence, scale 0 to 10, 0 no effect, 10 complete control
# [8] = Rate 500 g/ha, Postemergence, scale 0 to 10, 0 no effect, 10 complete control
# [9] = Rate 125 g/ha, Postemergence section (flood test species), scale 0 to 10, 0 no effect, 10 complete control
# [10] = Rate 500 g/ha, listed under Postemergence (flood test species), scale 0 to 10, 0 no effect, 10 complete control
# [11] = flood test, listed under Postemergence, Rate 250 g/ha, scale 0 to 10, 0 no effect, 10 complete control
smiles,measurement,setting,value
CCN(C(=O)n1oc(=O)n(-c2c(C)cc(C)cc2C)c1=O)C1CCCCC1 [Compound 63],Bedstraw plant response rating,bedstraw; [1],0
same,Bedstraw plant response rating,bedstraw; [2],3
same,Bedstraw plant response rating,bedstraw; [3],0
same,"Plant response rating, Bedstraw",bedstraw; [4],0
same,"Plant response rating, Bedstraw",bedstraw; [5],0
same,Bedstraw plant response rating,bedstraw; [6],3
same,Bedstraw plant response rating,bedstraw; [7],0
same,Blackgrass plant response rating,blackgrass; [1],0
same,Blackgrass plant response rating,blackgrass; [2],0
same,Blackgrass plant response rating,blackgrass; [3],0
same,"Plant response rating, Blackgrass",blackgrass; [4],0
same,"Plant response rating, Blackgrass",blackgrass; [5],0
same,Blackgrass plant response rating,blackgrass; [6],0
same,Blackgrass plant response rating,blackgrass; [7],0
same,Blackgrass plant response rating,blackgrass; [8],0
same,B. signalgrass plant response rating,surinam grass; [1],0
same,B. signalgrass plant response rating,surinam grass; [2],0
same,B. signalgrass plant response rating,surinam grass; [3],0
same,"Plant response rating, B. signalgrass",surinam grass; [4],0
same,"Plant response rating, B. signalgrass",surinam grass; [5],0
same,B. signalgrass plant response rating,surinam grass; [6],0
same,B. signalgrass plant response rating,surinam grass; [7],0
same,B. signalgrass plant response rating,"surinam grass; Rate 500 g/ha, Postemergence, scale of 0 to 10 where 0 is no effect and 10 is complete control",0
same,Corn plant response rating,corn; [1],0
same,Corn plant response rating,corn; [2],2
same,Corn plant response rating,corn; [3],0
same,"Plant response rating, Corn",corn; [4],0
same,"Plant response rating, Corn",corn; [5],0
same,Corn plant response rating,corn; [6],0
same,Corn plant response rating,corn; [7],0
same,Corn plant response rating,corn; [8],2
same,Crabgrass plant response rating,crabgrass; [1],0
same,Crabgrass plant response rating,crabgrass; [2],0
same,Crabgrass plant response rating,crabgrass; [3],0
same,"Plant response rating, Crabgrass",crabgrass; [4],0
same,"Plant response rating, Crabgrass",crabgrass; [5],1
same,Crabgrass plant response rating,crabgrass; [6],2
same,Crabgrass plant response rating,crabgrass; [7],0
same,Crabgrass plant response rating,crabgrass; [8],2
same,Redroot pigweed plant response rating,pigweed; [1],0
same,Redroot pigweed plant response rating,pigweed; [2],0
same,Redroot pigweed plant response rating,pigweed; [3],0
same,"Plant response rating, Redroot pigweed",pigweed; [4],0
same,"Plant response rating, Redroot pigweed",pigweed; [5],0
same,Redroot pigweed plant response rating,pigweed; [6],0
same,Redroot pigweed plant response rating,pigweed; [7],0
same,Redroot pigweed plant response rating,pigweed; [8],2
same,Rape plant response rating,rape; [1],0
same,Rape plant response rating,rape; [2],0
same,Rape plant response rating,rape; [3],0
same,"Plant response rating, Rape",rape; [4],0
same,"Plant response rating, Rape",rape; [5],0
same,Rape plant response rating,rape; [7],0
same,Rape plant response rating,rape; [8],0
same,Soybean plant response rating,soybean; [1],2
same,Soybean plant response rating,soybean; [2],2
same,Soybean plant response rating,soybean; [3],0
same,"Plant response rating, Soybean",soybean; [4],0
same,"Plant response rating, Soybean",soybean; [5],0
same,Soybean plant response rating,soybean; [6],0
same,Soybean plant response rating,soybean; [7],2
same,Soybean plant response rating,soybean; [8],3
same,Sugarbeets plant response rating,sugar beet; [1],0
same,Sugarbeets plant response rating,sugar beet; [2],2
same,Sugarbeets plant response rating,sugar beet; [3],0
same,"Plant response rating, Sugarbeets",sugar beet; [4],0
same,"Plant response rating, Sugarbeets",sugar beet; [5],0
same,Sugarbeets plant response rating,sugar beet; [6],0
same,Sugarbeets plant response rating,sugar beet; [7],0
same,Sugarbeets plant response rating,sugar beet; [8],3
same,Velvetleaf plant response rating,velvetleaf; [1],3
same,Velvetleaf plant response rating,velvetleaf; [2],5
same,Velvetleaf plant response rating,velvetleaf; [3],0
same,"Plant response rating, Velvetleaf",velvetleaf; [4],0
same,"Plant response rating, Velvetleaf",velvetleaf; [5],2
same,Velvetleaf plant response rating,velvetleaf; [6],3
same,Velvetleaf plant response rating,velvetleaf; [7],3
same,Velvetleaf plant response rating,velvetleaf; [8],5
same,Wheat plant response rating,wheat; [1],0
same,Wheat plant response rating,wheat; [2],0
same,Wheat plant response rating,wheat; [3],0
same,"Plant response rating, Wheat",wheat; [4],0
same,"Plant response rating, Wheat",wheat; [5],0
same,Wheat plant response rating,wheat; [6],0
same,Wheat plant response rating,wheat; [7],0
same,Wheat plant response rating,wheat; [8],2
same,Wild oats plant response rating,wild oat; [1],0
same,Wild oats plant response rating,wild oat; [2],0
same,Wild oats plant response rating,wild oat; [3],0
same,"Plant response rating, Wild oats",wild oat; [4],0
same,"Plant response rating, Wild oats",wild oat; [5],0
same,Wild oats plant response rating,wild oat; [6],0
same,Wild oats plant response rating,wild oat; [7],0
same,Wild oats plant response rating,wild oat; [8],2
same,Nutsedge plant response rating,purple nutsedge; [1],0
same,Nutsedge plant response rating,purple nutsedge; [2],2
same,Nutsedge plant response rating,purple nutsedge; [3],0
same,"Plant response rating, Nutsedge",purple nutsedge; [4],0
same,"Plant response rating, Nutsedge",purple nutsedge; [5],0
same,Nutsedge plant response rating,purple nutsedge; [6],6
same,Nutsedge plant response rating,purple nutsedge; [7],0
same,Nutsedge plant response rating,purple nutsedge; [8],2
same,Rice plant response rating,rice; [1],0
same,Rice plant response rating,rice; [9],0
same,Rice plant response rating,rice; [10],0
same,Rice plant response rating,rice; [11],0
same,S. Flatsedge plant response rating,smallflower flatsedge; [1],0
same,S. Flatsedge plant response rating,smallflower flatsedge; [9],0
same,S. Flatsedge plant response rating,smallflower flatsedge; [10],0
same,S. Flatsedge plant response rating,smallflower flatsedge; [11],0
same,Ducksalad plant response rating,duck salad; [1],0
same,Ducksalad plant response rating,duck salad; [9],0
same,Ducksalad plant response rating,duck salad; [10],0
same,Ducksalad plant response rating,duck salad; [11],0
